From patent EP0320002A1, “Inhalant” (KYORIN SEIYAKU KABUSHIKI KAISHA, priority 1987, dated 1989)
≈ marks a conversion by molar mass, not a printed value.

Assay: solubility of ibudilast in water
Assay type: physicochemical

CC(C)C(=O)c1c(C(C)C)nn2ccccc12 [ibudilast, 3-isobutyryl-2-isopropylpyrazolo[1,5-a]pyridine]
solubility: 150 µg/mL (≈ 651 µM)
